Here are results for 26 compounds from patent US8513251B2, “Pyridazinone compounds” (Takeda Pharmaceutical Company Limited, priority 2009, dated 2013).

The structures appear in SMILES notation. Where two headings read alike, the source gives them in different places.

In this assay the target is T1, Human PDE10A enzyme (Homo sapiens, UniProt Q9Y233).
T1 construct: Human PDE10A enzyme was generated from Sf9 or COS-7 cells transfected with the full-length gene; His-tag; made in house; host or cells: Sf9 or COS-7 cells
T1 sequence (Q9Y233 267-1055): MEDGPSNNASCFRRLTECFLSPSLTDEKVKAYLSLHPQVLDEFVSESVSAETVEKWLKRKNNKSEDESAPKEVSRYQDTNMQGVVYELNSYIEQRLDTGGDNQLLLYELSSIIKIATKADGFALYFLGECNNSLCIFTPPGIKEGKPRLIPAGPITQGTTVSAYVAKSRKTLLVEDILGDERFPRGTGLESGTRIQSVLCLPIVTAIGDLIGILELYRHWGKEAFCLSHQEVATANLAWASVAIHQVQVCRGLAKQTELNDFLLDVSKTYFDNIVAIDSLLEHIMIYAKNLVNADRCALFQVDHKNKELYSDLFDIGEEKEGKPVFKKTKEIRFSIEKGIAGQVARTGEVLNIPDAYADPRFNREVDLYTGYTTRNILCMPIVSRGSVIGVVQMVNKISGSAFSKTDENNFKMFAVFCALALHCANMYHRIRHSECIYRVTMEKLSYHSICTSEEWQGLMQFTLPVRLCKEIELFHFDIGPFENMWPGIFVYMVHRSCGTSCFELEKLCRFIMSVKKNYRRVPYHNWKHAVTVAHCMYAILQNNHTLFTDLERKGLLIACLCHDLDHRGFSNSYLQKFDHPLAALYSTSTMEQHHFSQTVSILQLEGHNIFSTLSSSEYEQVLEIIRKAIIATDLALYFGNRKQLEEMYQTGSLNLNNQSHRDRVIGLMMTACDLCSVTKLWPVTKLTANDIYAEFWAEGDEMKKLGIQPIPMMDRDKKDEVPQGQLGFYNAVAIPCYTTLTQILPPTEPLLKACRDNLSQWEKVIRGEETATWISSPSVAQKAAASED
The assay is described as follows: PDE enzyme inhibition, SPA (Scintillation Proximity Assay). Format: biochemical. As to conditions: for inhibition at 1 µM: compound at 1 μM, read-out: Percent inhibition (1 μM); for IC50: human PDE10A, [3H]cGMP substrate; for inhibition at 0.1 µM: read-out: Percent inhibition (0.1 μM). Here is the method:
Human PDE10A enzyme was generated from Sf9 or COS-7 cells transfected with the full-length gene. Cloned enzyme was extracted from homogenized cell pellets. The extracted enzyme from Sf9 cells was partially purified using His-tag affinity column. The enzyme was stored at −70° C. until use. PDE activity was measured using a SPA (Scintillation Proximity Assay) (GE Healthcare). To evaluate the inhibitory activity, 10 μL of serial diluted compounds were incubated with 20 μL of PDE enzyme in assay buffer (50 mM HEPES-NaOH, 8.3 mM MgCl2, 1.7 mM EGTA, 0.1% BSA (pH 7.4)) for 30 min. at room temperature. Final concentration of DMSO in the assay was 1 percent as compounds were tested in duplicate in 96-well half-area plates (Corning). To start the reaction, 10 μL of substrate [3H] cGMP (25 or 50 nM; enclosed in SPA kits from GE Healthcare or purchased from PerkinElmer, respectively) was added for a final assay volume of 40 μL. After 60 min incubation at room temperature, yttrium SPA beads containing Zinc sulphate were added (20 μL at 6 mg/mL) to terminate the PDE reaction. After being settled for 60 min., assay plates were counted in a scintillation counter (PerkinElmer) to allow calculation of inhibition rate and IC50. Inhibition rate was calculated on the basis of 0% control wells with DMSO and 100% control wells without enzyme.
Background: SPA uses beads or plates that emit light when radiolabelled molecules are held near them.

Broadly, the inhibition is the relative decrease from the control value, in per cent. In general, IC50 refers to the concentration that gives 50% inhibition.

On to `N#Cc1ccc(-n2ccc(=O)c(-c3ccnn3-c3ccccc3)n2)cc1` [Example 46, 4-[4-Oxo-3-(1-phenyl-1H-pyrazol-5-yl)pyridazin-1(4H)-yl]benzonitrile], for which, under “Table 1”, the inhibition at 1 µM came to 97% and the IC50 was 0.01 to 0.2 µM.

As for `O=c1ccn(-c2ccc(S(=O)(=O)N3CCOCC3)cc2)nc1-c1ccnn1-c1ccccc1` [Example 48, 1-[4-(Morpholin-4-ylsulfonyl)phenyl]-3-(1-phenyl-1H-pyrazol-5-yl)pyridazin-4(1H)-one], where the note is “Table 1”, the inhibition at 1 µM was 100% and the IC50 was below 0.01 µM.

Regarding `NC(=O)c1ccc(-n2ccc(=O)c(-c3ccnn3-c3ccccc3)n2)cc1` [Example 49, 4-[4-Oxo-3-(1-phenyl-1H-pyrazol-5-yl)pyridazin-1(4H)-yl]benzamide], where the note is “Table 1”, the inhibition at 1 µM amounted to 98% and the IC50 is below 0.01 µM.

Regarding `CCOc1cn(-c2cccc(C(F)(F)F)c2)nc(-c2ccnn2-c2ccccc2)c1=O` [Example 59, 5-Ethoxy-3-(1-phenyl-1H-pyrazol-5-yl)-1-[3-(trifluoromethyl)phenyl]pyridazin-4(1H)-one], for the setting “Table 1”, the inhibition at 1 µM is 96% and the IC50 lay in the range of 0.01 to 0.2 µM.

For the compound `COc1cn(-c2ccc(N3CC(F)(F)C3)cc2F)nc(-c2ccnn2-c2ccccc2)c1=O` [Example 102, 1-[4-(3,3-Difluoroazetidin-1-yl)-2-fluorophenyl]-5-methoxy-3-(1-phenyl-1H-pyrazol-5-yl)pyridazin-4(1H)-one], where the note is “Table 2, compound at 0.1 μM”, the inhibition at 0.1 µM turned out to be 103%. Moreover, the IC50 (Table 2) is below 0.01 µM.

Take `COc1cn(-c2ccc(N3CCC(F)(F)C3)cc2F)nc(-c2ccnn2-c2ccccc2)c1=O` [Example 103, 1-[4-(3,3-Difluoropyrrolidin-1-yl)-2-fluorophenyl]-5-methoxy-3-(1-phenyl-1H-pyrazol-5-yl)pyridazin-4(1H)-one]: the inhibition at 0.1 µM (Table 2, compound at 0.1 μM) turned out to be 99%. For the same compound, the IC50 (Table 2) was below 0.01 µM.

`COc1cn(-c2ccc(N3CC(F)(F)C(F)(F)C3)cc2F)nc(-c2ccnn2-c2ccccc2)c1=O` [Example 104, 1-[2-Fluoro-4-(3,3,4,4-tetrafluoropyrrolidin-1-yl)phenyl]-5-methoxy-3-(1-phenyl-1H-pyrazol-5-yl)pyridazin-4(1H)-one]: for the setting “Table 2, compound at 0.1 μM”, the inhibition at 0.1 µM worked out at 99%. Further, the IC50 (Table 2) is below 0.01 µM.

Turning to `COc1cn(-c2ccc(N3CCC(F)(F)CC3)cc2F)nc(-c2ccnn2-c2ccccc2)c1=O` [Example 106, 1-[4-(4,4-Difluoropiperidin-1-yl)-2-fluorophenyl]-5-methoxy-3-(1-phenyl-1H-pyrazol-5-yl)pyridazin-4(1H)-one], the inhibition at 0.1 µM (Table 2, compound at 0.1 μM) was found to be 100%. The compound also had an IC50 (Table 2) below 0.01 µM.

With `COc1cn(-c2ccc(N3CCCC3=O)cc2F)nc(-c2ccnn2-c2ccccc2)c1=O` [Example 108, 1-[2-Fluoro-4-(2-oxopyrrolidin-1-yl)phenyl]-5-methoxy-3-(1-phenyl-1H-pyrazol-5-yl)pyridazin-4(1H)-one], for the setting “Table 2, compound at 0.1 μM”, the inhibition at 0.1 µM was determined as 103%. In addition, the IC50 (Table 2) was below 0.01 µM.

With `COc1cn(-c2ccc(N3CCOC3=O)cc2F)nc(-c2ccnn2-c2ccccc2)c1=O` [Example 109, 1-[2-Fluoro-4-(2-oxo-1,3-oxazolidin-3-yl)phenyl]-5-methoxy-3-(1-phenyl-1H-pyrazol-5-yl)pyridazin-4(1H)-one], the inhibition at 0.1 µM (Table 2, compound at 0.1 μM) was 99%. The compound also showed an IC50 (Table 2) below 0.01 µM.

`COc1cn(-c2ccc(-n3ccnc3)cc2F)nc(-c2ccnn2-c2ccccc2)c1=O` [Example 111, 1-[2-Fluoro-4-(1H-imidazol-1-yl)phenyl]-5-methoxy-3-(1-phenyl-1H-pyrazol-5-yl)pyridazin-4(1H)-one]: the inhibition at 0.1 µM (Table 2, compound at 0.1 μM) turned out to be 97%. Further, where the note is “Table 2”, the IC50 was below 0.01 µM.

For `COc1cn(-c2cccc(-c3cnn(C)c3)c2F)nc(-c2ccnn2-c2ccccc2)c1=O` [Example 113, 1-[2-Fluoro-3-(1-methyl-1H-pyrazol-4-yl)phenyl]-5-methoxy-3-(1-phenyl-1H-pyrazol-5-yl)pyridazin-4(1H)-one], the inhibition at 0.1 µM (Table 2, compound at 0.1 μM) came out at 99%. This compound also showed an IC50 (Table 2) below 0.01 µM.

Regarding `COc1cn(-c2ccc(-c3cnn(C)c3)cc2F)nc(-c2ccnn2-c2ccccc2)c1=O` [Example 114, 1-[2-Fluoro-4-(1-methyl-1H-pyrazol-4-yl)phenyl]-5-methoxy-3-(1-phenyl-1H-pyrazol-5-yl)pyridazin-4(1H)-one], for the setting “Table 2, compound at 0.1 μM”, the inhibition at 0.1 µM is 102%. This compound registered an IC50 (Table 2) below 0.01 µM.

Turning to `COc1cn(-c2ccc(-c3cnn(C(F)F)c3)cc2F)nc(-c2ccnn2-c2ccccc2)c1=O` [Example 116, 1-{4-[1-(Difluoromethyl)-1H-pyrazol-4-yl]-2-fluorophenyl}-5-methoxy-3-(1-phenyl-1H-pyrazol-5-yl)pyridazin-4(1H)-one], the inhibition at 0.1 µM (Table 2, compound at 0.1 μM) was 99%. Moreover, the IC50 (Table 2) was below 0.01 µM.

Consider `COc1cn(-c2ccc(-n3cc(F)c(F)c3)cc2F)nc(-c2ccnn2-c2ccccc2)c1=O` [Example 119, 1-[4-(3,4-Difluoro-1H-pyrrol-1-yl)-2-fluorophenyl]-5-methoxy-3-(1-phenyl-1H-pyrazol-5-yl)pyridazin-4(1H)-one], for which the inhibition at 0.1 µM (Table 2, compound at 0.1 μM) turned out to be 100%. Besides, where the note is “Table 2”, the IC50 is below 0.01 µM.

As for `COc1cn(-c2ccc(-n3cccn3)cc2F)nc(-c2ccnn2-c2ccccc2)c1=O` [Example 120, 1-[2-Fluoro-4-(1H-pyrazol-1-yl)phenyl]-5-methoxy-3-(1-phenyl-1H-pyrazol-5-yl)pyridazin-4(1H)-one], the inhibition at 0.1 µM worked out at 100%.

`COc1cn(-c2ccc(-n3nccc3OC(F)F)cc2F)nc(-c2ccnn2-c2ccccc2)c1=O` [Example 123, 1-{4-[5-(Difluoromethoxy)-1H-pyrazol-1-yl]-2-fluorophenyl}-5-methoxy-3-(1-phenyl-1H-pyrazol-5-yl)pyridazin-4(1H)-one]: the inhibition at 0.1 µM (Table 2, compound at 0.1 μM) is 99%. For the setting “Table 2”, the IC50 was below 0.01 µM.

On to `COc1cn(-c2ccc(-n3c(=O)ccn3C(F)F)cc2F)nc(-c2ccnn2-c2ccccc2)c1=O` [Example 124, 1-{4-[2-(Difluoromethyl)-5-oxo-2,5-dihydro-1H-pyrazol-1-yl]-2-fluorophenyl}-5-methoxy-3-(1-phenyl-1H-pyrazol-5-yl)pyridazin-4(1H)-one], for which the inhibition at 0.1 µM (Table 2, compound at 0.1 μM) was 97%. This compound also gave an IC50 (Table 2) below 0.01 µM.

`COc1cn(-c2ccc(-n3cccn3)cc2F)nc(-c2ccnn2-c2ccccc2F)c1=O` [Example 163, 3-[1-(2-Fluorophenyl)-1H-pyrazol-5-yl]-1-[2-fluoro-4-(1H-pyrazol-1-yl)phenyl]-5-methoxypyridazin-4(1H)-one]: the inhibition at 0.1 µM (Table 2, compound at 0.1 μM) turned out to be 101%. This compound also came in with an IC50 (Table 2) below 0.01 µM.

For the compound `COc1cn(-c2ccc(-n3cccn3)cc2F)nc(-c2ccnn2-c2cccc(Cl)c2)c1=O` [Example 164, 3-[1-(3-Chlorophenyl)-1H-pyrazol-5-yl]-1-[2-fluoro-4-(1H-pyrazol-1-yl)phenyl]-5-methoxypyridazin-4(1H)-one], the inhibition at 0.1 µM (Table 2, compound at 0.1 μM) was 101%. Besides, where the note is “Table 2”, the IC50 is below 0.01 µM.

Turning to `COc1cn(-c2ccc(N3CCN(C)C3=O)cc2F)nc(-c2ccnn2-c2ccccc2)c1=O` [Example 178, 1-[2-fluoro-4-(3-methyl-2-oxoimidazolidin-1-yl)phenyl]-5-methoxy-3-(1-phenyl-1H-pyrazol-5-yl)pyridazin-4(1H)-one], the inhibition at 0.1 µM (Table 2, compound at 0.1 μM) was determined as 92%. Further, the IC50 (Table 2) was below 0.01 µM.

Take `COc1cn(-c2ccc(N3CC=CC3)cc2F)nc(-c2ccnn2-c2ccccc2)c1=O` [Example 179, 1-[4-(2,5-Dihydro-1H-pyrrol-1-yl)-2-fluorophenyl]-5-methoxy-3-(1-phenyl-1H-pyrazol-5-yl)pyridazin-4(1H)-one]: under “Table 2, compound at 0.1 μM”, the inhibition at 0.1 µM amounted to 96%. This compound also had an IC50 (Table 2) below 0.01 µM.

Take `COc1cn(-c2ccc(-n3cc(Cl)cn3)cc2F)nc(-c2ccnn2-c2ccccc2)c1=O` [Example 180, 1-[4-(4-Chloro-1H-pyrazol-1-yl)-2-fluorophenyl]-5-methoxy-3-(1-phenyl-1H-pyrazol-5-yl)pyridazin-4(1H)-one]: under “Table 2, compound at 0.1 μM”, the inhibition at 0.1 µM turned out to be 96%. For the setting “Table 2”, this compound came in with an IC50 below 0.01 µM.

Turning to `COc1cn(-c2ccc(N3CCC(C)(O)CC3)cc2F)nc(-c2ccnn2-c2ccccc2)c1=O` [Example 186, 1-[2-Fluoro-4-(4-hydroxy-4-methylpiperidin-1-yl)phenyl]-5-methoxy-3-(1-phenyl-1H-pyrazol-5-yl)pyridazin-4(1H)-one], where the note is “Table 2, compound at 0.1 μM”, the inhibition at 0.1 µM came out at 100%. The same compound yielded an IC50 (Table 2) below 0.01 µM.

Consider `COc1cn(-c2ccc(N3CC(C)(C)CC3=O)cc2F)nc(-c2ccnn2-c2ccccc2)c1=O` [Example 189, 1-[4-(4,4-Dimethyl-2-oxopyrrolidin-1-yl)-2-fluorophenyl]-5-methoxy-3-(1-phenyl-1H-pyrazol-5-yl)pyridazin-4(1H)-one], for which the inhibition at 0.1 µM (Table 2, compound at 0.1 μM) came to 100%. The IC50 (Table 2) is below 0.01 µM.

In the case of `COc1cn(-c2ccc(N3CC(C)(C)OC3=O)cc2F)nc(-c2ccnn2-c2ccccc2)c1=O` [Example 190, 1-[4-(5,5-Dimethyl-2-oxo-1,3-oxazolidin-3-yl)-2-fluorophenyl]-5-methoxy-3-(1-phenyl-1H-pyrazol-5-yl)pyridazin-4(1H)-one], the inhibition at 0.1 µM (Table 2, compound at 0.1 μM) was 100%. In addition, under “Table 2”, the IC50 is below 0.01 µM.
